Assay results taken from patent US20090074666A1 (priority 2005, published 2009).
Read-outs that look alike come from different tables or passages of the source.

Key:
[1] = system: serum antibodies of test subjects (anti-human IgG detection); experiment: ELISA of serum antibodies on maleimide-activated plates; assay type: binding; details: Cys-conjugate on maleimide plate
Procedure: Peptides containing cysteine were bound through the cysteine sulfhydryl group to maleimide activated plates (Reacti-Bind™ Maleimide activated plates, Pierce).
One hundred microliters of the peptide solution (0.5 nmol of peptide) was added to each well and allowed to react overnight at +4° C.
The unreacted maleimide groups were blocked with 2-mercaptoethanol: 150 μl of 1 mM 2-mercaptoethanol in 10 mM sodium phosphate/0.15 M NaCl/2 mM EDTA, pH 7.2 was added to each well and allowed to react for 1 hour at RT.
The serum obtained from person nr. […] Control wells contained no peptide but both 2-mercaptoethanol and BSA blockings were employed. All incubations were performed in duplicates.

[2] = system: serum antibodies of test subjects (anti-human IgG detection); details: N-terminal biotin conjugate on streptavidin plate
Procedure: Biotinylated peptides were bound to streptavidin-coated plates (Pierce).
The peptides sequences were as follows: • Biotin-aminohexanoyl-PWVRGV (custom product, CSS, Edinburgh, Scotland) • Biotin-aminohexanoyl-SYACKR (custom product, CSS, Edinburgh, Scotland) • Biotin-aminohexanoyl-SKAYSNC (custom product, CSS, Edinburgh, Scotland)
Prior to peptide immobilization, plates were blocked with 150 μl of 0.5% BSA in 10 mM sodium phosphate/0.15 M NaCl/0.05% Tween-20, pH 7.2, for 1.5 h at RT. The plate was then washed three times with 10 mM sodium phosphate/0.15 M NaCl/0.05% Tween-20, pH 7.2.
Peptides were dissolved in 10 mM sodium phosphate/0.15 M NaCl, pH 7.2, to a concentration of 0.5 nmol/ml. One hundred microliters of the peptide solutions (50 pmol of the peptide) were added to the wells and allowed to react overnight at +4° C. The plates were then washed four times with 10 mM sodium phosphate/0.15 M NaCl/0.05% Tween-20/0.2% BSA, pH 7.2 (washing buffer).
Serum was obtained from six healthy individuals (29-44 years of age), and dilutions 1:10, 1:100 and 1:1000 were prepared from all but one serum sample in the washing buffer. The serum obtained from person nr. 5 was instead diluted 1:25, 1:250 and 1:2500 in the washing buffer. One hundred microliters of each serum sample was added to the wells and incubated for 60 mins at RT. […] All incubations were performed in duplicates.
After serum incubation the plate was washed with the washing buffer 8 times with at least 5 min incubation period between change of the washing liquid.
The bound serum antibodies were quantitated by adding anti-human IgG (rabbit)—HRP conjugate (Sigma) in 1:30000 dilution to each well. After one hour incubation at RT, the plate was washed five times with the washing buffer. One hundred microliters of TMB+ color reagent (Dako Cytomation) was then added. The absorbance was read at 650 nm after 15 mins. Immediately after this measurement 100 μl of 1 M sulphuric acid was added and the absorbance read at 450 nm.

[3] = system: A/Shangdong/9/93 H3N2; assay type: binding, human influenza virus A; parameters: key: “+” = binding; “−” = no binding; “(+)” = trace binding
[4] = system: A/New Caledonia/20/99; assay type: binding, human influenza virus A; parameters: key: “+” = binding; “−” = no binding; “(+)” = trace binding
[5] = system: A/PR/8/34 H1N1; assay type: binding, human influenza virus A; parameters: key: “+” = binding; “−” = no binding; “(+)” = trace binding
[6] = system: A/Kiev/301/94 H3N2; assay type: binding, human influenza virus A; parameters: key: “+” = binding; “−” = no binding; “(+)” = trace binding
[7] = system: A/2/Japan/305/57 H2N2; assay type: binding, human influenza virus A; parameters: key: “+” = binding; “−” = no binding; “(+)” = trace binding
[8] = system: A/X31, A/Aichi/3/75 H3N2; assay type: binding, human influenza virus A; parameters: key: “+” = binding; “−” = no binding; “(+)” = trace binding
[9] = system: A/Taiwan/1/86 H1N1; assay type: binding, human influenza virus A; parameters: key: “+” = binding; “−” = no binding; “(+)” = trace binding
[10] = system: A/Beijing/262/95 H1N1; assay type: binding, human influenza virus A; parameters: key: “+” = binding; “−” = no binding; “(+)” = trace binding
[11] = system: human influenza virus A strains; assay type: binding

Biotin-aminohexanoyl-SKAYSNC [Peptide 1]
Approximate immune reactions of sera against synthetic peptides ([1]; Serum 1): weakly or non-reactive | Approximate immune reactions of sera against synthetic peptides ([1]; Serum 2): reacted | Approximate immune reactions of sera against synthetic peptides ([1]; Serum 3): reacted | Approximate immune reactions of sera against synthetic peptides ([1]; Serum 4): reacted | Approximate immune reactions of sera against synthetic peptides ([1]; Serum 5): weakly or non-reactive | Approximate immune reactions of sera against synthetic peptides ([1]; Serum 6): strongest | Approximate immune reactions of sera against synthetic peptides ([2]; Serum 1, listed as Biotin-aminohexanoic-SKAYSNC): weakly or non-reactive | Approximate immune reactions of sera against synthetic peptides ([2]; Serum 3, listed as Biotin-aminohexanoic-SKAYSNC): strongest immune response | Approximate immune reactions of sera against synthetic peptides ([2]; Serum 4, listed as Biotin-aminohexanoic-SKAYSNC): strongest immune response | Approximate immune reactions of sera against synthetic peptides ([2]; Serum 5, listed as Biotin-aminohexanoic-SKAYSNC): weakly or non-reactive | Approximate immune reactions of sera against synthetic peptides ([2]; Serum 6, listed as Biotin-aminohexanoic-SKAYSNC): weakly or non-reactive

Biotin-aminohexanoyl-SYACKR [Peptide 2]
Approximate immune reactions of sera against synthetic peptides ([1]; Serum 5): weaker | Approximate immune reactions of sera against synthetic peptides ([1]; Serum 6): strongest response | Approximate immune reactions of sera against synthetic peptides ([2]; Serum 1, listed as Biotin-aminohexanoic-SYACKR): weakest reaction | Approximate immune reactions of sera against synthetic peptides ([2]; Serum 2, listed as Biotin-aminohexanoic-SYACKR): strongest immune response | Approximate immune reactions of sera against synthetic peptides ([2]; Serum 5, listed as Biotin-aminohexanoic-SYACKR): strongest immune response

Globoside
Binding of influenza virus strain to glycolipids [3]: − | Binding of influenza virus strain to glycolipids [4]: − | Binding of influenza virus strain to glycolipids [5]: − | Binding of influenza virus strain to glycolipids [6]: − | Binding of influenza virus strain to glycolipids [7]: − | Binding of influenza virus strain to glycolipids [8]: − | Binding of influenza virus strain to glycolipids [9]: − | Binding of influenza virus strain to glycolipids [10]: −

Neu5Acα2-3Galβ1-4GlcNAcβ1-3(Neu5Acα2-3Galβ1-4GlcNAcβ1-6)Galβ1-4Glc [Oligosaccharide 9]
activity on solid phase, in words [11]: active especially when presented in polyvalent form on a solid phase
